Test results published in patent US20250339409A1, “USES OF PAN BET INHIBITORS” (VYNE THERAPEUTICS INC., priority 2021, published 2025).
“And” between values parts separate entries of the source, which are not always exact repeats. Equal entries are not always repeated. Marks after values point to notes of the source that are not given here.

Test system: anti collagen antibodies induced arthritis (ACAIA)
Experiment: Anti collagen antibodies induced arthritis (ACAIA) in mice, intra-articular treatment: paw thickness, arthritis clinical score, body weight;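 note: mouse arthritis induced by IV anti-collagen mAb on day 0 plus IP LPS on day 4, with body weight, caliper paw thickness and 0-4 paw score tracked against a day 0 baseline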
Conditions: for Average clinical score per day (untreated): untreated leg
[1] = Dexamethasone 1 mg/kg IA (Group 7), Av
[2] = Dexamethasone 1 mg/kg IA (Group 7), individual animals
[3] = Dexamethasone 1 mg/kg IP (Group 6), Av
[4] = Dexamethasone 1 mg/kg IP (Group 6), individual animals

## C[C@@H]1C[C@H]2[C@@H]3CCC4=CC(=O)C=C[C@]4(C)[C@@]3(F)[C@@H](O)C[C@]2(C)[C@@]1(O)C(=O)CO [dexamethasone, Dexamethasone, reference compound]
1 mg/kg IA (Group 7), Baseline
  Clinical score of treated leg (Avg.): 0.00 points
  Paw thickness Avg. Delta untreated -treated: 0.00 mm
  Percent change of weight per day (Av): 100.00%
  Percent change of weight per day (individual animal): 100%
  Δ clinical score untreated -treated, Avg. Delta: 0.00 points
  Average clinical score per day (untreated): 0.00 points
1 mg/kg IA (Group 7), Day 3
  Clinical score of treated leg (Avg.): 0.00 points
  Paw thickness Avg. Delta untreated -treated: −0.02 mm
  Percent change of weight per day (Av): 98.19%
  Percent change of weight per day (individual animal): 100% and 97.54% and 95.7% and 99.48%
  Δ clinical score untreated -treated, Avg. Delta: 0.00 points
  Average clinical score per day (untreated): 0.00 points
1 mg/kg IA (Group 7), Day 4
  Clinical score of treated leg (Avg.): 0.00 points
  Paw thickness Avg. Delta untreated -treated: −0.06 mm
  Percent change of weight per day (Av): 95.21%
  Percent change of weight per day (individual animal): 97.91% and 96.55% and 93.01% and 93.23%
  Δ clinical score untreated -treated, Avg. Delta: 0.00 points
  Average clinical score per day (untreated): 0.00 points
1 mg/kg IA (Group 7), Day 5
  Clinical score of treated leg (Avg.): 0.00 points
  Paw thickness Avg. Delta untreated -treated: −0.05 mm
  Percent change of weight per day (Av): 91.29%
  Percent change of weight per day (individual animal): 90.58% and 91.133% and 88.71% and 100%
  Δ clinical score untreated -treated, Avg. Delta: 0.00 points
  Average clinical score per day (untreated): 0.00 points
1 mg/kg IA (Group 7), Day 6
  Clinical score of treated leg (Avg.): 0.29 points
  Paw thickness Avg. Delta untreated -treated: 0.05 mm
  Paw thickness of treated leg (Avg.): 2.24** mm
  Paw thickness of untreated leg (Avg.): 2.29 mm
  Percent change of weight per day (Av): 88.66%
  Percent change of weight per day (individual animal): 86.91% and 87.68% and 86.02% and 102.0833%
  Δ clinical score untreated -treated, Avg. Delta: 0.29 points
  Average clinical score per day (untreated): 0.57 points
1 mg/kg IA (Group 7), Day 7
  Clinical score of treated leg (Avg.): 0.86 points
  Paw thickness Avg. Delta untreated -treated: −0.01 mm
  Paw thickness of treated leg (Avg.): 2.30** mm
  Paw thickness of untreated leg (Avg.): 2.30 mm
  Percent change of weight per day (Av): 88.04%
  Percent change of weight per day (individual animal): 89.01% and 83.25% and 86.02% and 104.1667%
  Δ clinical score untreated -treated, Avg. Delta: 0.00 points
  Average clinical score per day (untreated): 0.86 points
1 mg/kg IA (Group 7), Day 8
  Clinical score of treated leg (Avg.): 1.14 points
  Paw thickness Avg. Delta untreated -treated: 0.14 mm
  Paw thickness of treated leg (Avg.): 2.44 mm
  Paw thickness of untreated leg (Avg.): 2.59 mm
  Percent change of weight per day (Av): 89.48%
  Percent change of weight per day (individual animal): 90.05% and 83.25% and 87.63% and 104.6875%
  Δ clinical score untreated -treated, Avg. Delta: 0.57 points
  Average clinical score per day (untreated): 1.71 points
1 mg/kg IA (Group 7), Day 10
  Clinical score of treated leg (Avg.): 1.14 points
  Paw thickness Avg. Delta untreated -treated: 0.19 mm
  Paw thickness of treated leg (Avg.): 2.45 mm
  Paw thickness of untreated leg (Avg.): 2.64 mm
  Percent change of weight per day (Av): 92.65%
  Percent change of weight per day (individual animal): 91.1% and 92.61% and 87.63% and 104.1667%
  Δ clinical score untreated -treated, Avg. Delta: 0.43 points
  Average clinical score per day (untreated): 1.57 points
1 mg/kg IA (Group 7), Day 12
  Clinical score of treated leg (Avg.): 1.29 points
  Paw thickness Avg. Delta untreated -treated: 0.24 mm
  Paw thickness of treated leg (Avg.): 2.50 mm
  Paw thickness of untreated leg (Avg.): 2.74 mm
  Percent change of weight per day (Av): 96.89%
  Percent change of weight per day (individual animal): 93.19% and 99.01% and 90.32% and 110.4167% and 94.55%
  Δ clinical score untreated -treated, Avg. Delta: 0.43 points
  Average clinical score per day (untreated): 1.71 points
1 mg/kg IP (Group 6), Baseline
  Clinical score of treated leg (Avg.): 0.00 points
  Paw thickness Avg. Delta untreated -treated: 0.02 mm
  Percent change of weight per day (Av): 100.00%
  Percent change of weight per day (individual animal): 100%
  Δ clinical score untreated -treated, Avg. Delta: 0.00 points
  Average clinical score per day (untreated): 0.00 points
1 mg/kg IP (Group 6), Day 3
  Clinical score of treated leg (Avg.): 0.00 points
  Paw thickness Avg. Delta untreated -treated: 0.00 mm
  Percent change of weight per day (Av): 95.60** percent
  Percent change of weight per day (individual animal): 94.97% and 94.09% and 95.07% and 96.31% and 96.24% and 96.41% and 96.1165%
  Δ clinical score untreated -treated, Avg. Delta: 0.00 points
  Average clinical score per day (untreated): 0.00 points
1 mg/kg IP (Group 6), Day 4
  Clinical score of treated leg (Avg.): 0.00 points
  Paw thickness Avg. Delta untreated -treated: −0.01 mm
  Percent change of weight per day (Av): 96.59%
  Percent change of weight per day (individual animal): 96.48% and 95.5665% and 97.04% and 96.31% and 96.71% and 97.4359% and 96.6%
  Δ clinical score untreated -treated, Avg. Delta: 0.00 points
  Average clinical score per day (untreated): 0.00 points
1 mg/kg IP (Group 6), Day 5
  Clinical score of treated leg (Avg.): 0.00 points
  Paw thickness Avg. Delta untreated -treated: 0.01 mm
  Percent change of weight per day (Av): 88.34%
  Percent change of weight per day (individual animal): 88.44% and 86.2069% and 91.63% and 86.18% and 86.85% and 89.74% and 89.32%
  Δ clinical score untreated -treated, Avg. Delta: 0.00 points
  Average clinical score per day (untreated): 0.00 points
1 mg/kg IP (Group 6), Day 6
  Clinical score of treated leg (Avg.): 0.00* points
  Paw thickness Avg. Delta untreated -treated: −0.05 mm
  Paw thickness of treated leg (Avg.): 2.25** mm
  Percent change of weight per day (Av): 87.71%
  Percent change of weight per day (individual animal): 88.44% and 86.7% and 89.66% and 86.18% and 86.85% and 89.74% and 86.41%
  Δ clinical score untreated -treated, Avg. Delta: 0.00 points
  Average clinical score per day (untreated): 0.00 points
1 mg/kg IP (Group 6), Day 7
  Clinical score of treated leg (Avg.): 0.00** points
  Paw thickness Avg. Delta untreated -treated: 0.03 mm
  Paw thickness of treated leg (Avg.): 2.16**** mm
  Percent change of weight per day (Av): 88.39%
  Percent change of weight per day (individual animal): 89.45% and 85.22% and 88.67% and 87.5576% and 88.73% and 90.26% and 88.83%
  Δ clinical score untreated -treated, Avg. Delta: 0.00 points
  Average clinical score per day (untreated): 0.00 points
1 mg/kg IP (Group 6), Day 8
  Clinical score of treated leg (Avg.): 0.00** points
  Paw thickness Avg. Delta untreated -treated: 0.10 mm
  Percent change of weight per day (Av): 88.85%
  Percent change of weight per day (individual animal): 89.95% and 85.22% and 87.68% and 91.24% and 88.73% and 91.28% and 87.86%
  Δ clinical score untreated -treated, Avg. Delta: 0.00 points
  Average clinical score per day (untreated): 0.00 points
1 mg/kg IP (Group 6), Day 10
  Clinical score of treated leg (Avg.): 0.14* points
  Paw thickness Avg. Delta untreated -treated: −0.04 mm
  Paw thickness of treated leg (Avg.): 2.09** mm
  Percent change of weight per day (Av): 88.77%
  Percent change of weight per day (individual animal): 89.45% and 86.7% and 88.18% and 91.24% and 88.26% and 89.23% and 88.35%
  Δ clinical score untreated -treated, Avg. Delta: −0.14 points
  Average clinical score per day (untreated): 0.00 points
1 mg/kg IP (Group 6), Day 12
  Clinical score of treated leg (Avg.): 0.00* points
  Paw thickness Avg. Delta untreated -treated: −0.02 mm
  Percent change of weight per day (Av): 90.11%
  Percent change of weight per day (individual animal): 91.9598% and 88.18% and 91.133* percent and 90.78% and 90.14% and 89.23% and 89.32%
  Δ clinical score untreated -treated, Avg. Delta: 0.00 points
  Average clinical score per day (untreated): 0.00 points
[1]
  Weight per day, Baseline: 19.8 g
  Weight per day, Day 3: 19.5 g
  Weight per day, Day 4: 18.8 g
  Weight per day, Day 5: 18.1 g
  Weight per day, Day 6: 17.5 g
  Weight per day, Day 7: 17.4 g
  Weight per day, Day 8: 17.7 g
  Weight per day, Day 10: 18.3 g
[2]
  Weight per day, Baseline: 19.1 g and 20.3 g and 18.6 g and 19.2 g and 20.2 g (2×) and 20.9 g
  Weight per day, Day 3: 19.1 g (2×) and 19.8 g and 17.8 g and 19.9 g and 19.7 g and 20.6 g
  Weight per day, Day 4: 18.7 g and 19.6 g and 17.3 g and 17.9 g and 19.2 g and 19.1 g and 20.1 g
  Weight per day, Day 5: 17.3 g and 18.5 g and 16.5 g and 19.2 g and 18.2 g and 17.7 g and 19 g
  Weight per day, Day 6: 16.6 g and 17.8 g and 16 g and 19.6 g and 17.7 g and 17.1 g and 17.9 g
  Weight per day, Day 7: 17 g and 16.9 g and 16 g and 20 g and 17.4 g and 15.8 g and 18.7 g
  Weight per day, Day 8: 17.2 g and 16.9 g and 16.3 g and 20.1 g and 18 g and 16.4 g and 18.9 g
  Weight per day, Day 10: 17.4 g and 18.8 g and 16.3 g and 20 g and 18.2 g (2×) and 19.4 g
[3]
  Weight per day, Baseline: 20.5 g
  Weight per day, Day 3: 19.6 g
  Weight per day, Day 4: 19.8 g
  Weight per day, Day 5: 18.1 g
  Weight per day, Day 6: 18 g
  Weight per day, Day 7: 18.1 g
  Weight per day, Day 8: 18.2 g
  Weight per day, Day 10: 18.2 g
[4]
  Weight per day, Baseline: 19.9 g and 20.3 g (2×) and 21.7 g and 21.3 g and 19.5 g and 20.6 g
  Weight per day, Day 3: 18.9 g and 19.1 g and 19.3 g and 20.9 g and 20.5 g and 18.8 g and 19.8 g
  Weight per day, Day 4: 19.2 g and 19.4 g and 19.7 g and 20.9 g and 20.6 g and 19 g and 19.9 g
  Weight per day, Day 5: 17.6 g and 17.5 g (2×) and 18.6 g and 18.7 g and 18.5 g and 18.4 g
  Weight per day, Day 6: 17.6 g (2×) and 18.2 g and 18.7 g and 18.5 g and 17.5 g and 17.8 g
  Weight per day, Day 7: 17.8 g and 17.3 g and 18 g and 19 g and 18.9 g and 17.6 g and 18.3 g
  Weight per day, Day 8: 17.9 g and 17.3 g and 17.8 g (2×) and 19.8 g and 18.9 g and 18.1 g
  Weight per day, Day 10: 17.8 g and 17.6 g and 17.9 g and 19.8 g and 18.8 g and 17.4 g and 18.2 g
intra-articular 1 mg/kg, day 12, scale 0-4
  average arthritis score, treated limbs: 1.3
